In article PMC7997032, “Organic synthesis and anti-influenza A virus activity of cyclobakuchiols A, B, C, and D” (PLoS ONE, 2021):
Values joined by “and” are separate entries in the source; they are usually repeats but may differ in a detail not shown here. Equal values may be shown once.

Tested on: myxovirus-resistant protein 1 (Mx1)
Test: RT-qPCR of Mx1 mRNA in MDCK cells with or without A/PR/8/34 virus
Assay type: cell-based, canine
Conditions: for MDCK Mx1 mRNA, ave / MDCK Mx1 mRNA, individual replicates: 12.5uM, relative to virus - DMSO; for MDCK Mx1 mRNA, ave: ave of #1-3 exp; for MDCK Mx1 mRNA, individual replicates: replicates 1-3 of #1, #2, #3 exp

Row | Compound | MDCK Mx1 mRNA, ave (virus +) | MDCK Mx1 mRNA, ave (virus -) | mRNA level of Mx1 compared with 4 or 5-treatment | also measured
1 | C=C[C@]1(C)CCC(C(=C)C)C(c2ccc(O)cc2)C1 (stereo in doubt) [cyclobakuchiol B] | 2.462 | 0.5972 |  | MDCK Mx1 mRNA, individual replicates (virus +, listed as Cyclobakuchiol B): 0.2997 and 4.213 and 3.979 and 5.553 and 2.777 and 2.185 and 2.395 and 0.2998 and 0.4603; MDCK Mx1 mRNA, individual replicates (virus -, listed as Cyclobakuchiol B): 0.4518 and 0.5333 and 0.4418 and 0.5841 and 1.295 and 0.3791 and 0.8214 and 0.4024 and 0.4657
2 | C=C[C@]1(C)CCC(C(C)(C)O)C(c2ccc(O)cc2)C1 (stereo in doubt) [cyclobakuchiol C] | 4.111 | 1.049 |  | MDCK Mx1 mRNA, individual replicates (virus +, listed as Cyclobakuchiol C): 0.595 and 6.605 and 6.273 and 8.3748 and 5.332 and 3.973 and 4.3945 and 0.841 and 0.6149; MDCK Mx1 mRNA, individual replicates (virus -, listed as Cyclobakuchiol C): 0.8391 and 0.8734 and 1.094 and 0.9606 and 1.231 and 1.129 and 1.257 and 1.188 and 0.8673
3 | C=C[C@@](C)(/C=C/c1ccc(O)cc1)CCC=C(C)C [(+)-(S)-bakuchiol, reference compound] | 1.1334 | 0.4419 | significantly reduced | virus-induced upregulation of Mx1 mRNA: significantly reduced; MDCK Mx1 mRNA, individual replicates (virus +): 0.2413 and 1.8944 and 2.953 and 2.445 and 0.9019 and 0.5846 and 0.6126 and 0.2532 and 0.315; MDCK Mx1 mRNA, individual replicates (virus -): 0.2755 and 0.4409 and 0.4188 and 0.4047 and 0.5819 and 0.4639 and 0.4949 and 0.4956 and 0.401
4 | C=C[C@]1(C)CCC(C(=C)C)C(c2ccc(O)cc2)C1 (stereo in doubt) [cyclobakuchiol A] | 1.207 | 0.4356 | significantly reduced | MDCK Mx1 mRNA, individual replicates (virus +, listed as Cyclobakuchiol A): 0.2527 and 2.463 and 2.156 and 2.352 and 0.9916 and 0.8981 and 0.9472 and 0.4146 and 0.3917; MDCK Mx1 mRNA, individual replicates (virus -, listed as Cyclobakuchiol A): 0.3455 and 0.4424 and 0.367 and 0.3469 and 0.4512 and 0.4646 and 0.7257 and 0.3943 and 0.3827
5 | C=C[C@]1(C)CCC(C(C)(C)O)C(c2ccc(O)cc2)C1 (stereo in doubt) [cyclobakuchiol D] | 4.805 | 1.431 |  | MDCK Mx1 mRNA, individual replicates (virus +, listed as Cyclobakuchiol D): 0.823 and 8.732 and 6.853 and 11.4737 and 5.421 and 3.904 and 4.71 and 0.7737 and 0.5563; MDCK Mx1 mRNA, individual replicates (virus -, listed as Cyclobakuchiol D): 1.033 and 1.181 and 1.602 and 1.158 and 2.885 and 1.4873 and 1.3014 and 1.1198 and 1.11
